Measured values taken from paper PMC10791687, “The Piezo channel is a mechano-sensitive complex component in the mammalian inner ear hair cell” (Nature Communications, 2024).

Target: T1, mPz1 (mouse Piezo1) (Mus musculus, UniProt E2JF22)
T1 construct: full-length, mPz1-IRES-GFP plasmid (clone from A. Patapoutian) in mouse Neuro2A cells; also purified/enriched mPz1 in planar lipid bilayer; homotrimer
Test: single-channel recording in planar lipid bilayer
Type: biochemical
Conditions: purified mPz1, 500 mM KCl, 10 mM MOPS, pH 7.4

T1 sequence (E2JF22 whole entry): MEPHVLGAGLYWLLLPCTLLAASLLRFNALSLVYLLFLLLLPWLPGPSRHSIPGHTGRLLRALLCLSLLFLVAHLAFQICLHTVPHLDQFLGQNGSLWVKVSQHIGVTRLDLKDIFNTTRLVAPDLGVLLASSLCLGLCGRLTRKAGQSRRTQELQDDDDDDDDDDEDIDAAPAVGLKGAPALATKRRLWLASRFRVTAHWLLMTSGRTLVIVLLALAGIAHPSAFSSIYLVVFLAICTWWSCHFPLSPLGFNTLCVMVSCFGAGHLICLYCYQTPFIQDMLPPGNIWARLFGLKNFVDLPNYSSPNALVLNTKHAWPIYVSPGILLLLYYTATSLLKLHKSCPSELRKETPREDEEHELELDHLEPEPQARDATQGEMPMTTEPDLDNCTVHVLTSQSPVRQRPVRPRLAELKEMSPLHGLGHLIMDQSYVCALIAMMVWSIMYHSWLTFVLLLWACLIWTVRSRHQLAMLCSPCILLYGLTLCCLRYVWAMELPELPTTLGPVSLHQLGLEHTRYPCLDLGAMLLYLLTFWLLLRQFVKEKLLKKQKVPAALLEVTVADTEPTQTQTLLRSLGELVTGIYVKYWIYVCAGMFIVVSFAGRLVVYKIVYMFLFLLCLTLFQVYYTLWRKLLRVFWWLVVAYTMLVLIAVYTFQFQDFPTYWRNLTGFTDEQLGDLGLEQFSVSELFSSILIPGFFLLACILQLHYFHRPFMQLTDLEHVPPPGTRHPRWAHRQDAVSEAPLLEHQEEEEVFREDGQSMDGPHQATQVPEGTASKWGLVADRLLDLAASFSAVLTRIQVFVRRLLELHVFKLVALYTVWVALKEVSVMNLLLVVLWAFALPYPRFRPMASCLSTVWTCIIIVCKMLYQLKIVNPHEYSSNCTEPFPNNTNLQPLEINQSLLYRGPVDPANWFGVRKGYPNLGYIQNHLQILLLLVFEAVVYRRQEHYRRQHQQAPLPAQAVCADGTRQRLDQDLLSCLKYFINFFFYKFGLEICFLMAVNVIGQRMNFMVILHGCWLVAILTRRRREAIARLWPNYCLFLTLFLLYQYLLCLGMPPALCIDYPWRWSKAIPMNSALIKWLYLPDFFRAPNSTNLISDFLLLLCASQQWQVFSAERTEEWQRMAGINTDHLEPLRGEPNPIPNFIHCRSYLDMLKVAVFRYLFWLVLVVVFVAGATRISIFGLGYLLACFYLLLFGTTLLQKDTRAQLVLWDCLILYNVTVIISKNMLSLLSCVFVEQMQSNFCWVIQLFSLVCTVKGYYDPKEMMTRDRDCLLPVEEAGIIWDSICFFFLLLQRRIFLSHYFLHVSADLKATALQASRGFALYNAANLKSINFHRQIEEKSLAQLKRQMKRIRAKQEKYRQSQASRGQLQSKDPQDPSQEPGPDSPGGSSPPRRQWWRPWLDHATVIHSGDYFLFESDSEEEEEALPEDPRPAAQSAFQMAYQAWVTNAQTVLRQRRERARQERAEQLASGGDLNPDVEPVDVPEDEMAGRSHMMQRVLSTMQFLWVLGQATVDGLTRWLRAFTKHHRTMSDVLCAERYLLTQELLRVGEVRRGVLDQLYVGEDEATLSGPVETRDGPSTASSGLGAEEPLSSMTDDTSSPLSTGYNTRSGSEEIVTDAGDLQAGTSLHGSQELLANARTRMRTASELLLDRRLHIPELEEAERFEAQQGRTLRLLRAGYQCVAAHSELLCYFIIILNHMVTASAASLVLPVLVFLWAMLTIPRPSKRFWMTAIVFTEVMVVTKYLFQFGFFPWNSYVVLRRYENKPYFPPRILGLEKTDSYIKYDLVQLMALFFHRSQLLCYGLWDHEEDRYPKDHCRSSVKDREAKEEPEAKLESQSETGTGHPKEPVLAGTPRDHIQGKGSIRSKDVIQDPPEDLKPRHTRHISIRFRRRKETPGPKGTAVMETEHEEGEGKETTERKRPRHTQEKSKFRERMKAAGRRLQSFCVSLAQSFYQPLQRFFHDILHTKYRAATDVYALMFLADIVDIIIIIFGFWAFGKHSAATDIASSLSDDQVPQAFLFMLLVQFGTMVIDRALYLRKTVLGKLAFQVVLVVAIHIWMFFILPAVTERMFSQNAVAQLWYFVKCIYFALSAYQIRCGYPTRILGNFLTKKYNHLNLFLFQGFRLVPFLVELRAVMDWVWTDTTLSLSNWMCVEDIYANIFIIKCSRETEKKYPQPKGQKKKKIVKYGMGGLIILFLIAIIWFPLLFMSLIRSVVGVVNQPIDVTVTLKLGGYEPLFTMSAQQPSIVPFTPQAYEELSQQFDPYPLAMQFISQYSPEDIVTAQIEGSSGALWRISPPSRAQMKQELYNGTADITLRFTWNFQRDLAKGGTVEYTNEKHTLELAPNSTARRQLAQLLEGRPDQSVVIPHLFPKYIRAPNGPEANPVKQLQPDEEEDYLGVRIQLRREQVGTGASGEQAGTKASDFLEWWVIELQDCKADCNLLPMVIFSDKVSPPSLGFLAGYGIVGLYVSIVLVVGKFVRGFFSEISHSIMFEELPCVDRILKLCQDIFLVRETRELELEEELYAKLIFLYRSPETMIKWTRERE

CN[C@@H]1[C@H](O[C@H]2[C@H](O[C@H]3[C@H](O)[C@@H](O)[C@H](N=C(N)N)[C@@H](O)[C@@H]3N=C(N)N)O[C@@H](C)[C@]2(O)CO)O[C@@H](CO)[C@H](O)[C@H]1O [dihydrostreptomycin]
single-channel recording in planar lipid bilayer: DHS, GsMTx4, and ruthenium blocked the mPz1-channel activity in lipid bilayers
